Like-named read-outs stand apart in the source and are kept apart here.

One series deals with MCF-7/ADR cells. The experiment in a line: Cytotoxicity versus time of drug hydrolysis before addition to cells. Particulars: 1 μmol equiv./L, 25° C., serum-free media containing 10% DMSO, MCF-7/ADR survival. Type of series: cell-based, human. On the procedure: The results of these experiments are illustrated in FIG. 2. […] However, the dimeric formaldehyde conjugate of daunorubicin completely lost its effectiveness within 25 min of standing in an aqueous solution. […] This biphasic curve is probably due to the decay mechanism of the dimeric formaldehyde conjugate of doxorubicin to doxorubicin in aqueous solution.
The drug solution was diluted 1:100 with DMSO, then 1:10 in serum-free RPMI media 1640. A volume of 20 μL of the resulting 0.5 μM (1 μmol equiv/L) drug solution was immediately added to the t=0 min lane. The remaining lanes were treated at 5 min intervals with 20 μL of the remaining drug solution, which was held at 25° C. between additions. Additionally, one lane was treated with 20 μL/well of serum-free RPMI media containing 10% DMSO (no drug) and one lane replaced with 200 μL/well of 1.5 M Tris buffer (no cells). Each lane was incubated at 37° C. for 3 h.

The conditions of series [1]: amorphous material.
In a further series the test system is PC-3. Put plainly: Prostate cancer cell cytotoxicity, crystal violet assay, PC-3. In kind it is cell-based, human. As to conditions: 3 h drug. On the procedure: Toxicity to the three prostate cancer cell lines, LNCaP, DU-145, and PC-3 were measured in two different media, RPMI-1640 and DMEM (Dulbecco's Modified Eagle Medium), both supplemented with 10% fetal bovine serum.
Cell lines were maintained in vitro in RPMI 1640 media or DMEM, each supplemented with 10% fetal bovine serum, 2 mM L-glutamine, 10 mM HEPES buffer, penicillin (100 units/mL) and streptomycin (100 μg/mL).
Cells were dissociated with trypsin/EDTA, counted, and suspended in growth media (RPMI or DMEM) to a concentration of 5.6×10^3 cells/mL. Cell suspensions were dispensed in 180 μL aliquots into 96-well tissue culture plates. […] Each 100× solution was diluted 10× in growth media (RPMI or DMEM), and a 20 μL aliquot of the resulting 10× solution was immediately (<10s) added to-the appropriate lane. Additionally, one lane was treated with 20 μL of 10% DMSO in growth media (no drug) and one lane was treated with 200 μL of 1.5 M Tris buffer (no cells). The cells were incubated with the drugs for 3 h at 37° C. The drug solutions were then removed and replaced with 200 μL of fresh media. The cells were incubated for 4 days (7 days for PC-3 cells in DMEM) at 37° C. in a humidified atmosphere of 5% CO2 and 95% air. Cell survival was determined using a crystal violet assay as described earlier (Fenick, D. J. et al (1997) J. Med. Chem. 40: 2452-2461).

Series [2] in a line: Hydrolysis in aqueous phosphate buffer, HPLC. Type of series: physicochemical. On the procedure:
See Example 16. […] The DMSO was present to increase solubility.
Second, the kinetics of hydrolysis were measured in pH 6.0 phosphate buffer.
A 960 μL solution of pH 7.3 phosphate buffer was heated to 37° C. […] No change in the chromatography was observed if pH, 7.3 phosphate buffer was used as the eluent in place of pH 7.4 TEAA buffer.

Regarding `COc1cccc2c1C(=O)c1c(O)c3c(c(O)c1C2=O)C[C@@](O)(C(C)=O)C[C@@H]3O[C@H]1C[C@H]2[C@H](OCN2CN2CO[C@@H]3[C@H](C)O[C@@H](O[C@H]4C[C@](O)(C(C)=O)Cc5c(O)c6c(c(O)c54)C(=O)c4c(OC)cccc4C6=O)C[C@@H]32)[C@H](C)O1` [DAUNF, bis(3′-N-(3′-N,4′-O-methylenedaunorubicinyl))methane], the “time of standing in an aqueous solution until effectiveness completely lost” value in the series on MCF-7/ADR cells is no more than 25 min. In addition, the “concentration to which the material dissolved instantly in dimethylsulfoxide” value in series [1] was no less than 20000 µg/mL. Further, the IC50 in the series on PC-3 (DMEM with 10% fetal bovine serum, 7 days growth, read-out: IC50 Values, PC-3/DMEM (converted)) was 0.5 nM; with PC-3 (RPMI-1640 with 10% fetal bovine serum, 4 days growth, read-out: IC50 Values, PC-3/RPMI-1640 (converted)), 2.5 nM.
Take `COc1cccc2c1C(=O)c1c(O)c3c(c(O)c1C2=O)CC(O)(C(=O)CO)CC3OC1CC2C(OCN3CN2COC2C(C)OC(OC4C[C@](O)(C(=O)CO)Cc5c(O)c6c(c(O)c54)C(=O)c4c(OC)cccc4C6=O)CC23)C(C)O1` (stereo partly shown) [EPIF]: the half-life at 25 µM in series [2] (pH 6.0 phosphate buffer, 37° C.) was found to be 0.25 h. Also, in series [2] (pH 7.3, at equilibrium), the “time the equilibrium mixture is stable” value is listed as “at least 2 days”. For the same compound, the half-life in series [2] (pH 7.3 phosphate buffer, 37° C., read-out: half-life of hydrolysis, forward reaction (A⇄B) to C+D (converted)) is roughly 2 h.

For orientation: half-life means how long it takes for the measured level to halve.

The record behind these values is patent US6677309B1, “Anti-cancer drug aldehyde conjugate drugs with enhanced cytotoxicity compounds, compositions and methods” (University Technology Corporation, priority 1997, dated 2004).
